Results as given in PubChem BioAssay (NCI).
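48-hour exposure; five concentrations; linearly interpolated endpoints. TGI: concentration producing complete growth inhibition.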

What was measured:
Assay in all cases: growth of human tumour cells (NCI), 48 h
[1] = test system: U251 CNS
[2] = test system: NCI/ADR-RES ovarian
[3] = test system: IGROV1 ovarian
[4] = test system: SK-MEL-2 melanoma
[5] = test system: COLO 205 colon
[6] = test system: MDA-MB-435
[7] = test system: RPMI-8226 leukemia
[8] = test system: UACC-62 melanoma
[9] = test system: SK-OV-3 ovarian
[10] = test system: SF-295 CNS
[11] = test system: A498 renal

Row | SMILES | TGI [1] [µM] | TGI [2] [µM] | TGI [3] [µM] | TGI [4] [µM] | TGI [5] [µM] | TGI [6] [µM] | TGI [7] [µM] | TGI [8] [µM] | TGI [9] [µM] | TGI [10] [µM] | TGI [11] [µM]
1 | NCCCC(N)C(=O)O (configuration not stated) | > 100 | > 100 | > 100 | > 100 | > 100 | > 100 | > 100 | > 100 | > 100 | > 100 | > 100
2 | O=C1C(C=NCCc2c[nH]c3ccccc23)C(C(F)(F)F)=NN1c1nc2ccccc2s1 (configuration not stated) | > 100 | 78 | > 100 | 77.7 | 34 | 71.9 | 62.5 | 43.6 | 76.2 | 66.5 | 42.1
3 | CN(O)C(=O)Cc1ccc(OCc2cccc(Cl)c2)cc1 | > 100 | > 100 | > 100 | > 100 | > 100 | > 100 | > 100 | > 100 | > 100 | > 100 | 94.3
4 | CC(C)/C(Cl)=N\OC(=O)NNc1ccccc1 | > 100 | > 100 | > 100 | > 100 | 1.63 | > 100 | 1.34 | > 100 | > 100 | > 100 | > 100
5 | O=C1N[C@@H]2c3c(csc3Br)C(=O)[C@@H]2O1 | 69.2 | > 100 | > 100 | > 100 | > 100 | 46.9 | 85.1 | > 100 | > 100 | > 100 | > 100
6 | O=C1/C(=C/c2ccc([N+](=O)[O-])cc2)CNC/C1=C\c1ccc([N+](=O)[O-])cc1 | 1.67 | 26.3 | 4.78 | > 100 | 28.3 | 23.9 | 2.75 | 29.5 | > 100 | 34.1 | 37.3
7 | CN1CN(c2ccccc2)C2(CCN(CCCC3(c4cccs4)OCCO3)CC2)C1=O | > 100 | > 100 | > 100 | > 100 | > 100 | > 100 | > 100 | > 100 | > 100 | > 100 | > 100
8 | CCOP(=O)(OCC)/C(F)=C/c1ccccc1 | > 100 | > 100 | > 100 | > 100 | > 100 | > 100 | > 100 | > 100 | > 100 | > 100 | > 100
9 | C=CC/C(C(=O)OC)=C(/C(=O)OC)N(CCC)CCC | > 100 | > 100 | > 100 | > 100 | > 100 | > 100 | > 100 | > 100 | > 100 | > 100 | > 100
10 | C(=Nc1ccc(-c2nc3ccccc3s2)cc1)c1ccco1 | > 100 | > 100 | > 100 | > 100 | > 100 | > 100 | > 100 | > 100 | > 100 | 59.1 | 99.3
11 | Cc1ccc(C(=O)Nc2ccc(CP(=O)(O)O)cc2)cc1NC(=O)c1cccc(NC(=O)Nc2cccc(C(=O)Nc3cc(C(=O)Nc4ccc(CP(=O)(O)O)cc4)ccc3C)c2)c1 | > 100 | > 100 | > 100 | > 100 | > 100 | > 100 | > 100 | > 100 | > 100 | > 100 | > 100
12 | N#Cc1c(OCCF)c2ccccc2n2c1nc1ccccc12 | > 100 | > 100 | > 100 | > 100 | > 100 | > 100 | > 100 | > 100 | > 100 | > 100 | > 100
13 | O=c1nc2c(c(-c3cccc(Cl)c3)[nH]1)COC/C2=C\c1cccc(Cl)c1 | > 100 | > 100 | > 100 | > 100 | > 100 | > 100 | > 100 | > 100 | > 100 | > 100 | > 100
14 | CC1=CC=CC(C)(C)CC1(O[Si](C)(C)C)C(F)(F)F (configuration not stated) | > 100 | > 100 | > 100 | > 100 | > 100 | > 100 | > 100 | > 100 | > 100 | > 100 | > 100
15 | O=[N+]([O-])C(=C(Sc1ccccc1)Sc1ccccc1)C(Cl)=C(Cl)Cl | 4.21 | 1.9 | 2.95 | 5.86 | 0.697 | 1.3 | 0.0712 | 1.94 | 24.6 | 28.3 | 6.94
16 | CC(=O)OCC1OC(n2c(=S)[nH]c(-c3ccccc3)c(C#N)c2=O)C(OC(C)=O)C(OC(C)=O)C1OC(C)=O (configuration not stated) | > 100 | > 100 | > 100 | > 100 | > 100 | > 100 | > 100 | > 100 | > 100 | > 100 | > 100
17 | O=C(O)CNC(=O)c1ccc([As](=O)(O)O)cc1 | > 100 | > 100 | > 100 | > 100 | > 100 | > 100 | > 100 | > 100 | > 100 | > 100 | > 100
18 | Cc1nc(Cl)c(CBr)c(Cl)n1 | 4.1 | 7.8 | 3.39 | 4.68 | 3.15 | 3.3 | 4.47 | 3.46 | 12.7 | 22.9 | 24.7
19 | CC1=C2c3ccccc3N(C(=O)/C=C/C(=O)O)[C@H]2[C@H]2C(=O)OC(=O)[C@H]2C1 | > 10 | > 10 | > 10 | > 10 | > 10 | > 10 | > 10 | > 10 | > 10 | > 10 | > 10
20 | N#CC(C#N)=C1CCCS(=O)(=O)c2ccccc21 | > 100 | > 100 | > 100 | > 100 | > 100 | > 100 | > 100 | > 100 | > 100 | > 100 | > 100
21 | COC(=O)CCCC(=O)C(=Nc1c(Cl)cccc1Cl)NNc1ccc(Cl)cc1 | > 100 | > 100 | > 100 | > 80.3 | 82.4 | > 100 | > 100 | > 100 | > 100 | > 100 | 88.6
22 | C/C(=N/NC(=S)Nc1cccc(C)c1)c1ccccn1 | 4.89 | 0.444 | 4.68 | 4.42 | 1.34 | 3.5 | 13.7 | 2.92 | 2.78 | 4.89 | 3.54
23 | CN(C)c1ccc(/C(Br)=C2\OC(=O)c3ccccc32)cc1 | > 100 | > 100 | > 100 | > 100 | > 100 | > 100 | 71.7 | > 100 | > 100 | > 100 | > 100
24 | O=C(O)c1ccc(NS(=O)(=O)Cc2ccccc2)cc1 | > 100 | > 100 | > 100 | > 100 | > 100 | > 100 | > 100 | > 100 | > 100 | > 100 | > 100
25 | COc1ccc2c(c1)C(=O)c1ccccc1C2 | > 100 | > 100 | > 100 | > 100 | > 100 | > 100 | > 100 | > 100 | > 100 | > 100 | > 100
26 | c1ccc2c(c1)CCCN1CCc3ccccc3C21 (configuration not stated) | > 100 | > 100 | > 100 | > 100 | > 100 | 56.4 | > 100 | > 100 | > 100 | > 100 | > 100
27 | N#Cc1c2c(c(Nc3ccc(F)cc3)n3c1nc1ccccc13)CCC2 | 8.01 | 25 | 11.1 | 40.6 | 14.1 | 11 | > 21.3 | 25.1 | 26.8 | 18.7 | 28.8
